Experimental data taken from patent publication US4211772A, “Benzopyran glycoside acetals and ketals” (Laboratoires Sarget, priority 1977, dated 1980).
≈ marks a conversion by molar mass, not a printed value. Where two headings read alike, the source gives them in different places.

Experiments:
[1] = system: aldose reductase; settings: prior art statement; cited from earlier work
[2] = Solubilities in water; format: physicochemical; settings: water
[3] = target: T1, Aldose Reductase (Bos taurus, UniProt P16116); experiment: Inhibition of aldose reductase in vitro (enzyme from beef eye lenses, glyceraldehyde substrate); format: biochemical; settings: 5.10^-6 mole/l, in DMF solution
T1 construct: The enzyme is extracted from beef eye lenses; from tissue; host or cells: beef eye lenses
Text: Inhibition of Aldose Reductase In Vitro
The reoxidation of NADPH coupled to the enzymatic reaction was followed spectrophotometrically at 340 nm.

[4] = target: T2, COMT (Rattus norvegicus, UniProt P22734); experiment: Inhibition of COMT in vitro (enzyme from rat liver, 4-nitrocatechol substrate); format: biochemical; settings: in dimethylsulfoxide solution, read-out: percentages of inhibition (COMT)
T2 construct: The enzyme is extracted from rat liver; from tissue; host or cells: rat liver
T2 sequence (P22734 1-221 isoform P22734-2): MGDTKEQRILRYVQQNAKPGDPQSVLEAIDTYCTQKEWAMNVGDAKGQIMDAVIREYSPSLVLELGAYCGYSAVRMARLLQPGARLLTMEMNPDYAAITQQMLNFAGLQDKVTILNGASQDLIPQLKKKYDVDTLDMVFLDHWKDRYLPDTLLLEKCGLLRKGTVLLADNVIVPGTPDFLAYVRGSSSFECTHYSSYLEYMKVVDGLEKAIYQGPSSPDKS
Protocol: Inhibition of COMT in vitro The enzyme is extracted from rat liver by the method described by Axelrod et al, J. Biol. Chem., 233, 702(1958); its activity is measured in the presence of S-adenosyl methionine and using as substrate 4-nitrocatechol by the method described by Lee et al, J. Pharm. Sci., 66(7), 986(1977). The quantity of 4-nitrocatechol consumed was determined spectrophotometrically at 520 nm in alkaline medium.

[5] = system: carragenin edema; experiment: Anti-inflammatory activity: carragenin edema test; format: in vivo; settings: Rattus norvegicus, ip, substantially alkaline pH solution, read-out: % inhibition of carragenin edema; for inhibition in vivo at 100 mg/kg: 100 mg/kg i.p.; for inhibition in vivo at 200 mg/kg: 200 mg/kg i.p.; for inhibition in vivo at 300 mg/kg: 300 mg/kg i.p.
Procedure, shortened: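 Male Wistar EOPS rats receive 0.1 ml of 5% carragenin suspension in physiological serum into the hind-paw metatarsal muscle, with test substance given i.p. in neutralized solution at the same time. Paw edema is measured by plethysmometry at several times after carragenin and reported as % inhibition against pH-matched physiological serum controls.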

[6] = system: capillary permeability; experiment: Capillaroprotecting effects: capillary permeability; format: in vivo, conventional male Wistar rats
Protocol: Capillaroprotecting effects
The capillary permeability was determined by the method of Charlier et al, Arch. Inter. Physiol.

[7] = i.p. toxicity in Swiss EOPS mice, mortality at 14 days; settings: mouse, in vivo, ip, DMSO solution at 1/2, read-out: percentages of mortality at the end of 14 days
Protocol: The i.p. toxicities of certain compounds of the present invention were determined using male and female Swiss EOPS mice for administrations in DMSO solution at 1/2 under a volume of P/100.

C[C@@H]1O[C@@H](OC[C@H]2O[C@@H](Oc3c(-c4ccc(OCCO)c(OCCO)c4)oc4cc(OCCO)cc(OCCO)c4c3=O)[C@H](O)[C@@H](O)[C@@H]2O)[C@H](O)[C@H](O)[C@H]1O [5,7, 3', 4'-tetra-O-hydroxyethyl rutin]
inhibition of aldose reductase in vitro (in words) [1]: practically inactive

C[C@@H]1O[C@@H](OC[C@H]2O[C@@H](Oc3c(-c4ccc(O)c(O)c4)oc4cc(OCCO)cc(O)c4c3=O)[C@H](O)[C@@H](O)[C@@H]2O)[C@H](O)[C@H](O)[C@H]1O [7-O-hydroxyethyl rutin]
inhibition of aldose reductase in vitro (in words) [1]: practically inactive

C[C@@H]1O[C@@H](OC[C@H]2O[C@@H](Oc3c(-c4ccc(OCCO)c(OCCO)c4)oc4cc(OCCO)cc(O)c4c3=O)[C@H](O)[C@@H](O)[C@@H]2O)[C@H](O)[C@H](O)[C@H]1O [7, 3', 4'-tri-O-hydroxyethyl rutin]
inhibition of aldose reductase in vitro (in words) [1]: practically inactive

C[C@@H]1O[C@@H](OC[C@H]2O[C@@H](Oc3c(-c4ccc(O)c(O)c4)oc4cc(O)cc(O)c4c3=O)[C@H](O)[C@@H](O)[C@@H]2O)[C@H](O)[C@H](O)[C@H]1O [Rutin, rutin, reference compound]
solubility [2]: 120 µg/mL (≈ 197 µM) | percentages of inhibition (aldose reductase) [3]: 0% | inhibition at 1000 µM ([4]; 10^-3 mole/l): 63 to 68% | inhibition at 10 µM ([4]; 10^-5 mole/l): 13% | inhibition of aldose reductase in vitro (in words) [1]: inhibits aldose reductase in vitro

COc1ccc(C2CC(=O)c3c(O)cc(O[C@@H]4O[C@H](CO[C@@H]5O[C@@H](C)[C@H](O)[C@H]6OC(C)(C)O[C@@H]56)[C@@H](O)[C@H](O)[C@H]4O)cc3O2)cc1O (stereo partly drawn) [No. 18, 7-O-(2,3-O,O-isopropylidene-6-α-L-rhamnosyl-β-D-glucosyl)hesperitin]
solubility ([2]; read-out: Solubilities in water): 900 µg/mL (≈ 1380 µM) | inhibition in vivo at 100 mg/kg ([5]; 1/2 h): 0% | inhibition in vivo at 200 mg/kg ([5]; 1/2 h): 0% | inhibition in vivo at 300 mg/kg ([5]; 1/2 h): 0% | inhibition in vivo at 100 mg/kg ([5]; 1 h, 1 h 1/2): 17% | inhibition in vivo at 100 mg/kg ([5]; 1 h, 1 h): 0% | inhibition in vivo at 200 mg/kg ([5]; 1 h, 1 h 1/2): 39% | inhibition in vivo at 200 mg/kg ([5]; 1 h, 1 h): 18% | inhibition in vivo at 300 mg/kg ([5]; 1 h, 1 h 1/2): 27% | inhibition in vivo at 300 mg/kg ([5]; 1 h, 1 h): 0% | inhibition in vivo at 100 mg/kg ([5]; 2 h, 2 h): 16% | inhibition in vivo at 200 mg/kg ([5]; 2 h, 2 h): 42% | inhibition in vivo at 300 mg/kg ([5]; 2 h, 2 h): 27% | inhibition in vivo at 100 mg/kg ([5]; 3 h, 3 h): 13% | inhibition in vivo at 200 mg/kg ([5]; 3 h, 3 h): 46% | inhibition in vivo at 300 mg/kg ([5]; 3 h, 3 h): 21% | inhibition in vivo at 100 mg/kg ([5]; 4 h, 4 h): 20% | inhibition in vivo at 200 mg/kg ([5]; 4 h, 4 h): 52% | inhibition in vivo at 300 mg/kg ([5]; 4 h, 4 h): 26% | inhibition in vivo at 100 mg/kg ([5]; 5 h, 5 h): 21% | inhibition in vivo at 200 mg/kg ([5]; 5 h, 5 h): 50% | inhibition in vivo at 300 mg/kg ([5]; 5 h, 5 h): 16% | inhibition in vivo at 100 mg/kg ([5]; 6 h, 6 h): 27% | inhibition in vivo at 200 mg/kg ([5]; 6 h, 6 h): 55% | inhibition in vivo at 300 mg/kg ([5]; 6 h, 6 h): 16% | percentage reduction of capillary permeability ([6]; 10 mg/kg i.p.): 24% | percentage reduction of capillary permeability ([6]; 50 mg/kg i.p.): 21% | percentage reduction of capillary permeability ([6]; 75 mg/kg i.p.): 8% | mortality at 336 h ([7]; 1000 mg/kg i.p.): 0% | mortality at 336 h ([7]; 2000 mg/kg i.p.): 0%
